Experimental data: publication PMC8997399, “High-Throughput Screening to Identify Inhibitors of Plasmodium falciparum Importin α” (Cells, 2022)
Read-outs that look alike come from different tables or passages of the source.

How the values were obtained:
PfIMPα = PfIMPα (Plasmodium falciparum, UniProt Q8IAW0); assay: biochemical; format: binding; settings: for % Inhibition of IMPα-NLS Interaction PfIMPα: compounds at 10 μM, PfIMPα (10 nM):TGS1-NLS-GFP (60 nM), relative to 1% DMSO control, quadruplicate
Procedure: (§1) PfIMPα, TgIMPα, Mus musculus IMPα (MmIMPα), ΔIBBMmIMPα, and β1 (MmIMPβ) GST fusion proteins were expressed and purified essentially as previously. His-tagged TGS1-NLS-GFP, PfIMPα and TgIMPα proteins were purified using Ni^2+-affinity chromatography as described. His-tagged SV40 T-ag-NLS-GFP was purified as previously. Biotinylation of GST-tagged proteins was carried out using the Sulfo-NHS-Biotin reagent (Pierce, Rockford, IL, USA) as described previously. AlphaScreen binding assay was performed as described previously.
Then, 10 nM biotinylated PfIMPα and 60 nM TGS1-NLS-GFP were used with library compounds, screened at 10 µM final concentration.
Briefly, 5 μL of each compound in DMSO was added to quadruplicate wells of a 384-well plate along with appropriate controls including DMSO alone and ivermectin, as previously, using a JANUS Modular Dispense Technology (MDT) robotic system (PerkinElmer, Waltham, MA, USA). This was followed by successive 7 and 5 μL additions, respectively, of PfIMPα (10 nM) and TGS1-NLS-GFP (60 nM) or PBS (“no bait” control), respectively, and 30 min incubation at room temperature. […] Then, 4 µL of the AlphaScreen donor beads (1/40 dilution of GSH. acceptor beads in PBS) was finally added to each well using a Multidrop, followed by a further incubation of 2 h at room temperature in the dark.
(§2) Plates were read for an Alphascreen signal on an Envision plate reader (PerkinElmer, Waltham, MA, USA), with signals from the negative control wells (no bait control) on each plate subtracted.

TgIMPα = TgIMPα (Toxoplasma gondii, UniProt A0A125YID0); assay: biochemical; format: binding; settings: for % Inhibition of IMPα-NLS Interaction TgIMPα: compounds at 10 μM, TgIMPα (5 nM):T-ag-NLS-GFP (30 nM), relative to 1% DMSO control
Procedure: as §1, §2

[1] = system: T. gondii RH strain expressing the luciferase reporter (RH-Fluc); assay: T. gondii tachyzoite growth inhibition assay (RH-Fluc luciferase); format: cell-based, Toxoplasma gondii; settings: for T. gondii parasite killing: at 2 µM or less (Figure 7); for IC50: read-out: IC50 T. gondii
Description: T. gondii RH strain expressing the luciferase reporter (RH-Fluc) was derived to assess the effect of the inhibitors on growth. Briefly, plasmid pCTG-EGFP [42] was modified by replacing the coding sequence of EGFP with that of the firefly luciferase reporter, using restriction enzymes BglII and PstI (Thermo Fisher Scientific, Waltham, MA, USA). The resultant plasmid, pCTG-Fluc, expressing firefly luciferase constitutively under the control of the T. gondii TubulinA promoter, was electroporated into the T. gondii RH strain [43, 44] using a Bio-Rad GenePulser Xcell system (1500 V, 50 Ω and 25 µF) along with restriction enzyme NotI to initiate RE-Mediated Integration (REMI) of the linearized plasmid into the genome. The resultant stable T. gondii line expressing the luciferase reporter was selected for resistance to 20 µM chloramphenicol (encoded by the plasmid pCTG), and dilution cloning was performed to ultimately identify the clone (RH-Fluc) with the highest luciferase activity (c. 4 × 10^7 RLU from 10^7 parasites) used for growth assays. T. gondii tachyzoites were maintained and cultured at 37 °C in 5% CO2 in a humidified incubator in primary human foreskin fibroblasts (HFF, ATCC); HFF cells were maintained in Dulbecco’s modified Eagle medium (DMEM) (Gibco^TM, Waltham, MA, USA) supplemented with 3.7 g/L sodium bicarbonate and 2.38 g/L HEPES, 10% Cosmic Calf serum (Hyclone^TM, Logan, UT, USA) and 20 mg/L gentamicin [47, 48].
Growth inhibition was assessed by luminescence measurements as described. Briefly, 100 μL of culture medium with or without inhibitors was added to confluent monolayers of HFF cells grown in 96-well treated culture plates (Eppendorf, Hamburg, Germany), followed by 100 µL of DMEM containing 5000 parasites. After 48 h, 150 µL of the culture media was discarded from each well without aspirating any parasites, and 10 µL lysis buffer was added to lyse the parasites, followed by 50 μL of 2× luciferase assay reagent (Promega, Madison, WI, USA). Luminescence was measured directly for 10 s using a Varioskan™ LUX multimode microplate reader (Thermo Fisher Scientific, Waltham, MA, USA).

[2] = pooled, mean ± SEM (n = 3), read-out: IC50 TgIMPα:T-ag-NLS-GFP
[3] = 10 μM, 48 h, HFF cells infected with RH-Fluc (Figure 5B)
[4] = parasites in culture, 48 h, pooled, mean ± SD (n = 3) (Table 3)
[5] = single typical experiment (Figure 7), 48 h

Chain of TgIMPα (A0A125YID0 entry or part of it): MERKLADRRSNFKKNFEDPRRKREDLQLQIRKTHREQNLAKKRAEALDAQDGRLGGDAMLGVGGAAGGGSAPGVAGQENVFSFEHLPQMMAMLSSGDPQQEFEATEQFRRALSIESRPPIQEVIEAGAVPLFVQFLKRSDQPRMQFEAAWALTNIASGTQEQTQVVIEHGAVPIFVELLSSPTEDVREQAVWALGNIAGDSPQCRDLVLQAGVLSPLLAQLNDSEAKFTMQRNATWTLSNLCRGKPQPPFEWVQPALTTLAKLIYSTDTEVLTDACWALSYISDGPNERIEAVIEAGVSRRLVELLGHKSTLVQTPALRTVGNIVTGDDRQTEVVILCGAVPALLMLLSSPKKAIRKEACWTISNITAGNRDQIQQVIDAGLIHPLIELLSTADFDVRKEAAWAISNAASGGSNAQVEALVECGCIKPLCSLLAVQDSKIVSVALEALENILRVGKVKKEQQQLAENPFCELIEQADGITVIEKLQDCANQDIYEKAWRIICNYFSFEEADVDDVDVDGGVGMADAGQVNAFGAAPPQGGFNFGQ
Chain of PfIMPα (Q8IAW0 entry or part of it): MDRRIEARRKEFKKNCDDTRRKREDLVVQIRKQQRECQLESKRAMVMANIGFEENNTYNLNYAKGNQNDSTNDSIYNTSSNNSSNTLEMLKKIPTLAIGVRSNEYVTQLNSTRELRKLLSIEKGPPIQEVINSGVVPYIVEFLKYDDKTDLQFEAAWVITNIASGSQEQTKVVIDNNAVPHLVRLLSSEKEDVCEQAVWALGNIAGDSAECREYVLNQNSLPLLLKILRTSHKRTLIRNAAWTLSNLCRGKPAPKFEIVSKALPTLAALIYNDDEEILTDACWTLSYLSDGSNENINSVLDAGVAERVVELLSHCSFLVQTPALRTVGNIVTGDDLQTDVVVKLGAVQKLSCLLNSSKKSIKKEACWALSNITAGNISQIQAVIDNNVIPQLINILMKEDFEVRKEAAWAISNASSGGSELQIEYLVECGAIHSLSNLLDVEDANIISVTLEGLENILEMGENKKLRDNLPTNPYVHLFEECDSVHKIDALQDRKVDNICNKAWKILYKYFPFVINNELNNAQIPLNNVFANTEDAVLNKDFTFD

Row | SMILES | % Inhibition of IMPα-NLS Interaction PfIMPα (PfIMPα) | % Inhibition of IMPα-NLS Interaction TgIMPα (TgIMPα) | IC50 (TgIMPα; [2]) | fold higher IC50 for TgIMPα-NLS compared to PfIMPα-TGS-NLS interaction (TgIMPα; selectivity for PfIMPα) | reduction in luciferase activity, indicative of T. gondii growth inhibition [1, 3] | T. gondii parasite killing [1] | IC50 [1, 4] | IC50 [1, 5] | IC50 (PfIMPα) | inhibition at 10 µM (PfIMPα; read-out: % Inhibition of IMPα-NLS Interaction PfIMPα) | IC50 (TgIMPα) | inhibition at 10 µM (TgIMPα; read-out: % Inhibition of IMPα-NLS Interaction TgIMPα) | inhibition at 10 µM ([1]; Toxoplasma gondii, 10 μM, 48 h, HFF cells infected with RH-Fluc (Figure 5B), read-out: reduction in luciferase activity, indicative of T. gondii growth inhibition) | IC50 ([1]; Toxoplasma gondii, parasites in culture, 48 h, pooled, mean ± SD (n = 3) (Table 3)) | IC50 (TgIMPα; single experiment (Figure 3), IMPα 5 nM, NLS 30 nM, read-out: IC50 TgIMPα:T-ag-NLS-GFP)
1 | CC(C)(C)c1ccc(S(=O)(=O)/C=C/C#N)cc1 [Bay 11-7085] | 75% | 0% | 30400 ± 600 nM | ~16 fold | > 50% | ≥ 60% | 2700 ± 700 nM | 2000 nM |  |  |  |  |  |  | 
2 | O=C(/C=C/c1ccc(O)c(O)c1)OCCc1ccccc1 [CAPE, Caffeic acid phenethyl ester] |  |  |  |  |  |  |  |  | 1800 ± 300 nM | 84% | 2900 ± 900 nM | 62% | 5% | > 10000 nM | 
3 | CC(=O)OC[C@H]1O[C@@H]([S-])[C@H](OC(C)=O)[C@@H](OC(C)=O)[C@@H]1OC(C)=O.CCP(CC)CC.[Au+] [auranofin] | 94% | 90% | 80 ± 10 nM |  | > 50% | ≥ 60% | 2300 ± 800 nM | 1900 nM |  |  |  |  |  |  | 50 nM
